From patent EP1137438B1, “FORMULATION WITH AN IMPROVED THERAPEUTIC RANGE, CONTAINING NUCLEOTIDE SYNTHESIS INHIBITORS” (Aventis Pharma Deutschland GmbH, priority 1998, dated 2000)

Columns and labels:
[1] = tested on: Adjuvans induzierte Arthritis; assay: Adjuvant-induced arthritis, modification after Perper (paw volume, arthritis index on day 18); type: in vivo, männliche Ratten eines Lewis-Stammes
Experimental: Adjuvans induzierte Arthritis, Modifikation nach Perper (Proc. Soc. exp. Biol. Med. 137, 506 (1971)) Als Versuchstiere dienten männliche Ratten eines Lewis-Stammes (Moellegard, Dänemark) mit einem Körpergewicht von 160 bis 210 g. Die Tiere erhielten am 1.
Tag eine subkutane Injektion in die Schwanzwurzel mit kompletten Freund'schen Adjuvans, enthaltend eine Mycobacterium butyricum Suspension in schwerem Paraffin Öl (Difco; 6 mg/kg in Paraffin Öl; Merck). Die Verbindungen N-(4-Trifluormethylphenyl)-2-cyan-3-hydroxy-crotonsäureamid und Colestyramin wurden in Carboxymethylcellulose (1 % in Wasser) suspendiert und oral verabreicht. Die Verbindungen wurden einmal täglich vom 1. bis zum 17. Versuchstag appliziert; dann erfolgte die Bestimmung des Pfotenvolumens und Arthritis-Index am 18. Tag.
Die Schwere der Erkrankung wurde durch Messung des Pfotenvolumens beider Hinterpfoten bestimmt. Die Messung erfolgte durch die Wasserverdrängungsmethode mit einem Plethysmometer 2060 (Rhema-Labortechnik, Hofheim, Deutschland). Ferner erfolgte die Bestimmung des Arthritis Index am 18. Tag nach der Injektion.
Bestimmung des Arthritis Index: 1. Ohren 0,5 Punkte für jedes Ohr an dem eine Rötung auftritt und Knoten gebildet werden 2. Nase 1 Punkt für Bindegewebsschwellung 3. Schwanz 1 Punkt für das Auftauchen von Knoten 4. Vorderpfoten 0,5 Punkte für jede Pfote an der wenigsten eine Entzündung an einem Gelenk auftritt 5. Hinterpfoten 1 Punkt für leichte Entzündung (Schwellung) 2 Punkte für eine mittelstarke Entzündung 3 Punkte für eine massive Entzündungsreaktion
Tiere einer Kontrollgruppe "Arthritis Kontrolle" erhielten am 1. Tag eine subkutane Injektion in die Schwanzwurzel mit kompletten Freund'schen Adjuvans und erhielten aber nur das Lösungsmittel (1 % Carboxymethylcellulose in Wasser). Pro Dosierung und in der Kontrollgruppe wurden jeweils 6 Tiere verwendet. Als weitere Kontrollgruppe "gesunde Kontrolle" wurden unbehandelte Tiere eingesetzt. Als Wirkungskriterium diente die Herabsetzung der Pfotenvolumenzunahme und die Abnahme des Arthritis Index gegenüber der unbehandelten Kontrollgruppe und das Gewicht der Tiere jeweils in Prozent und bezogen auf die Arthritis Kontrolle.
In der folgenden Tabelle wird N-(4-Trifluormethylphenyl)-2-cyan-3-hydroxycrotonsäureamid als Verbindung 1 bezeichnet. Colestyramin wurde 4 Stunden später als Verbindung 1 appliziert. Tabelle 1 zeigt die erhaltenen Ergebnisse. Tabelle 1

[2] = Blood levels and duration of action of Verbindung 1 after later administration of Colestyramin; type: in vivo; details: after later administration of Colestyramin (interruption of enterohepatic circulation); result in words
Description: Die erfindungsgemäße Zubereitung kann auch Kompositionen oder Kombinationspackungen umfassen, in denen die Bestandteile nebeneinander gestellt sind und deshalb gleichzeitig, getrennt oder zeitlich abgestuft an ein und denselben menschlichen oder tierischen Körper anwendbar sind. Bevorzugt ist die zeitlich abgestufte Applikation von der Verbindung der Formel I und/oder II vor der Applikation der Verbindung, die die enterohepatische Zirkulation der Verbindung der Formel I oder II im wesentlichen verhindert. Hierzu wird beispielsweise zuerst N-(4-Trifluormethylphenyl)-2-cyan-3-hydroxy-crotonsäureamid (im folgenden als Verbindung 1 bezeichnet) appliziert. Colestyramin, das die enterohepatische Zirkulation der Verbindung 1 im wesentlichen verhindert, wird zeitlich versetzt, also z.B. 2 Stunden oder 4 Stunden nach der Gabe der Verbindung 1, appliziert. Durch diese zeitlich versetzte Gabe der Verbindung 1 und Colestyramin wird die Verbindung 1 zunächst ungehindert aus dem Verdauungstrakt resorbiert.
Nach der Gabe von Colestyramin, welches systemisch nicht resorbiert wird, wird die über die Galle ausgeschiedene Verbindung 1 an Colestyramin gebunden und kann daher nicht wieder reabsorbiert werden; dadurch wird eine Unterbrechung der enterohepatischen Zirkulation bewirkt.

[3] = Tabelle 1, Verbindung 1 25 mg/kg oral (combination: + 1000 mg/kg Colestyramin 4 h later), once daily day 1-17, read day 18
[4] = Tabelle 1, Verbindung 1 2,5 mg/kg oral (combination: + 1000 mg/kg Colestyramin 4 h later), once daily day 1-17, read day 18
[5] = Tabelle 1, Verbindung 1 7,5 mg/kg oral (combination: + 1000 mg/kg Colestyramin 4 h later), once daily day 1-17, read day 18
[6] = Tabelle 2 (Beispiel 2), Colestyramin 1000, Verbindung 1 25, combination 25 + 1000 mg/kg (Colestyramin 4 h later)
[7] = Tabelle 3 (Beispiel 3), Colestyramin 1000, Verbindung 1 25, combination 25 + 1000 mg/kg (Colestyramin 4 h later)

CC(O)=C(C#N)C(=O)Nc1ccc(C(F)(F)F)cc1 [Verbindung 1, N-(4-Trifluormethylphenyl)-2-cyan-3-hydroxy-crotonsäureamid]
Arthritis Index (%) [1, 3]: -100%
Pfotenvolumen (%) [1, 3]: -92%
Arthritis Index (%) [1, 4]: -77%
Pfotenvolumen (%) [1, 4]: -63%
Arthritis Index (%) [1, 5]: -92%
Pfotenvolumen (%) [1, 5]: -83%
Arthritis Index (%) [1, 6]: -100%
Pfotenvolumen (%) [1, 6]: -92%
Arthritis Index (%) [1, 7]: -100%
Pfotenvolumen (%) [1, 7]: -110%
Wirksamkeit im pathologischen Tiermodell (Adjuvans Arthritis) ([1]; about 2,5 mg/kg/Tag Verbindung 1, effect of added Colestyramin, result in words): nicht vermindert
Wirkungsdauer und Blutspiegel der Verbindung 1 [2]: drastisch reduziert
